{"source": "paper PMC6691016", "about": "“Glycosylation influences activity, stability and immobilization of the feruloyl esterase 1a from Myceliophthora thermophila” (AMB Express, 2019)", "key": {"[1]": {"target": "T1, P-Fae (MtFae1a produced in P. pastoris) (Thermothelomyces thermophilus, UniProt G2QND5)", "T1 construct": "gene Fae1a; mature (signal peptide, first 18 residues, removed); secreted from Pichia pastoris GS115 (vector pPNic706); no tag stated; N-glycosylated at Asn117 and Asn179 with larger glycans; calculated MW 29506 Da, 33 kDa on SDS-PAGE; homodimer only predicted", "T1 sequence (G2QND5 19-291)": "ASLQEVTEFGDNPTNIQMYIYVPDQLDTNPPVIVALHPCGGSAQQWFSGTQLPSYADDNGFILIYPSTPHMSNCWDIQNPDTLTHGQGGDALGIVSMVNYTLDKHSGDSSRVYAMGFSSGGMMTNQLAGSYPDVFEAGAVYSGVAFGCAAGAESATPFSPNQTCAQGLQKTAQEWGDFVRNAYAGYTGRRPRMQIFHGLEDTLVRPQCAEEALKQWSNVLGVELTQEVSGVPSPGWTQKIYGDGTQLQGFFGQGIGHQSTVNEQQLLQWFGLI", "test": "continuous absorbance assay at […] nm, non-linear regression", "type": "biochemical", "details": "substrate inhibition constant; free enzyme, 100 mM sodium phosphate pH 7.0, 35 °C; 5% DMSO"}, "[2]": {"target": "T2, M-Fae (MtFae1a produced in M. thermophila) (Thermothelomyces thermophilus, UniProt G2QND5)", "T2 construct": "gene Fae1a; mature (signal peptide, first 18 residues, removed); homologous over-production in M. thermophila C1; no tag stated; N-glycosylated at Asn117 and Asn179; calculated MW 29506 Da, 31 kDa on SDS-PAGE; homodimer only predicted", "T2 sequence (G2QND5 19-291)": "as above", "test": "continuous absorbance assay at […] nm, non-linear regression", "type": "biochemical", "details": "substrate inhibition constant; free enzyme, 100 mM sodium phosphate pH 7.0, 35 °C; 5% DMSO"}}, "data": [{"smiles": "COC(=O)/C=C/c1ccc(O)cc1", "note": "[MpCA, methyl p-coumarate]", "values": [{"measurement": "Ksi", "setting": "[1]", "result": "1.84 ± 0.28", "unit": "mM"}, {"measurement": "Ksi", "setting": "[2]", "result": "1.46 ± 0.29", "unit": "mM"}]}]}
